The source of these data is patent US7022484B2, “Methods for treating neuropathological states and neurogenic inflammatory states and methods for identifying compounds useful therein” (Board of Regents, The University of Texas System, priority 2000, dated 2006).

Assay [1] relates to rat arthritis model. Briefly: Paw withdrawal latency (PWL) to radiant heat in rat kaolin/carrageenan knee joint inflammation model. Format: in vivo. As to conditions: for development of secondary hyperalgesia: spinal microdialysis pre-treatment, 4 hours after induction of arthritis. Here is the method:
All studies followed the guidelines of the Institute Animal Care and Use Committee, in accordance with the guidelines of the National Institutes of Health. All animals were hosted in a room with a constant ambient temperature of 22° C. and 12 hour light/dark cycle with free access to food and water. Eighty-five Sprague-Dawley rats (250–300 grams) total were used in experiments conducted for biochemical, behavioral, and immunocytochemistry studies. […] On Day 2 baseline behavioral testing was followed by infusion of agents for 1.5 hours (pretreatment) prior to induction of knee joint inflammation under brief anesthesia. Behavioral testing was repeated 4 hours after induction of joint inflammation. Anesthetized animals were either transcardially perfused with aldehydes for immunohistochemical studies or fresh, frozen tissues collected for biochemical studies.
A microdialysis fiber was implanted into the spinal dorsal horn of anesthetized rats (sodium pentobarbital, 50 mg/kg) one day prior to the induction of arthritis according to the procedure of Skilling et al. (J. Neurochem., 51:127–132 (1988)), as described in Sluka et al. (Neurosci. Lett., 145:141–144 (1992)). Briefly, a small midline incision was made in the skin over the T12 vertebral level. The vertebrae were cleared of muscle and two 1 millimeter (mm) holes were drilled in the lateral aspect of both sides of the T12 vertebrae to expose the L4 spinal segment. A microdialysis fiber ([…], 45,000 MW cut-off, Hospal, AN69, Hospal Industrie, Meyzieu, France), was passed transversely across the deep dorsal horn and stabilized with dental cement. The microdialysis fiber was then passed through the holes in the vertebrae and transversely through the dorsal horn of the spinal cord. A 2 mm section of the microdialysis fiber lies in the dorsal horn at the level of L3–4 segment. The tubing was coated with epoxy except for a permeable portion passing through the spinal grey matter. The microdialysis fiber was connected to PE20 tubing (Becton Dickinson and Company, San Mateo, Calif.) which was tunneled under the skin to the nape of the neck. Alternatively as a systemic control for drug administration, the microdialysis fiber was implanted only in the subcutaneous tissue over the back muscle and tunneled to the neck. Artificial cerebrospinal fluid (aCSF) was made as described by Sorkin et al. (J. Neurosci. Methods, 23, 131–138 (1988)) and was infused (5 microliters/minute) for 1.5 hours and then the tube was heat-sealed for use on the following day.
Dose response curves were generated for Genistein with animals receiving Genistein spinally at concentration of 0.2 mM (n=3), 0.5 mM (n=3), 1 mM (n=9), and 2 mM (n=3). Animals received Lavendustin A or B spinally at concentrations of 0.1 mM (n=3), 0.5 mM (n=3), and 1 mM (n=5) as a positive and negative control for Genistein. […] Daidzein was tested at a dose of 1 mM (n=3). […] Eight additional animals received the vehicle, 50% DMSO in aCSF, as a control.
(§1) An acute inflammatory response restricted to the knee joint can be induced by the injection of 3% kaolin and 3% carrageenan (in sterile saline; 0.1 ml; pH 7.4) into the joint cavity while the animal is briefly anesthetized with sodium methohexital (Brevital, 60 mg/kg, i.p.). Kaolin and carrageenan were obtained from Fisher Scientific, St. Louis, Mo. The knee joint is flexed manually until the rat awakes (approximately 5–10 minutes). In this arthritis model in the awake rat, localized joint swelling, as well as limping and guarding of the limb, are well developed at 4 hours (Sluka et al., Pain, 59, 95–100 (1994)) when behavioral testing begins.
Fifty-five rats were used for behavioral studies. Four hours after induction of the arthritis, the joint is swollen and increased withdrawal responses to radiant heat and spontaneous guarding of the limb were noted. The increased responsiveness to noxious stimuli indicates the presence of secondary hyperalgesia. […]

The test system of the next assay is TNFα. As to the kind of experiment: TNFα release by ELISA from SW982 synovial cells treated with NMDA and ACPD. The assay is classed as cell-based, human. As to conditions: 24 hours, NMDA (5 mM) and ACPD (5 mM), K252a (100 nM). The procedure:
The cultured cell lines used in these studies were the human neuroblastoma clonal line, SHSY5Y, and the human synovial sarcoma clonal line, SW982, both available through the American Tissue Type Culture Collection (item number CRL 2266 and HTB-93, respectively). Cells were grown in Dulbecco's Modification of Eagles Medium (DMEM) without L-glutamine, with 4.5 grams/Liter glucose, and with 10% bovine fetal serum in a tissue culture incubator at 37° C. in a gaseous mixture of O2/CO2. Cells were routinely split as necessary to maintain proper cell density. Cells were removed from plates by adding TRYPSIN/EDTA in Hank's Balanced Salt solution. After cell counts, approximately 10,000 cells were plated per well in a culture dish. For experiments, the cells were plated into 35 mm Petri dishes or 6- or 24-well plates as needed.
For detection of released Tumor Necrosis Factor alpha (TNFα) and some western blot experiments, cells were exposed to the two glutamate agonists NMDA (5 mM) and ACPD (5 mM), in the presence or absence of the tyrosine kinase inhibitors Genistein […] or K252a (100 nM). […]
The release of the inflammatory mediator and initiator of inflammatory cascades, TNFα was measured by ELISA using a commercially available kit (R&D Quantikine, Catalog Number DTA50) specific for human TNFα. […]
For orientation: In an ELISA, binding on a coated surface is turned into a signal by an enzyme label.

Assay [2] relates to rat arthritis model. Briefly: Knee joint circumference and joint temperature in kaolin/carrageenan knee joint inflammation model. Format: in vivo. As to conditions: 4 hours after kaolin/carrageenan; spinal pre-treatment. Here is the method:
as §1
Knee joint circumference is measured in centimeters (cm) with a flexible tape measure around the center of the knee joint while the joint is held in extension as done with patients in the clinical setting as an indication of increases in joint volume. The knee joints of anesthetized rats are measured before (baseline) and four hours following injection of the knee joint with kaolin and carrageenan.
Temperature readings were documented numerically with a temperature probe after the rat is reanesthetized with sodium pentobarbital (50 mg/kg, i.p.) just prior to perfusion with aldehydes for histological preservation. Comparative temperature differences were made between the baseline temperature and the temperature four hours after induction of inflammation.

The test system of the next assay is NMDA currents. As to conditions: patch clamp studies; cited from earlier work.
Assay [3] deals with NMDA receptor subunit NR1. As to the kind of experiment: Immunocytochemical localization of NMDA receptor subunit NR1 in spinal cord of arthritic rats. The assay is classed as in vivo, rat. The conditions noted are these: 4 hours, Genistein 1 mM spinal pre-treatment, cycloheximide 100 mg/kg i.p. An excerpt: Cycloheximide (100 milligrams per kilogram (mg/kg) intraperitoneal (i.p.) was used in some studies to determine if the alterations observed for the NMDA NR1 receptor subunit could be attributed to newly synthesized NR1 protein.
Twenty-four rats in 3 separate groups were used for immunocytochemical studies. One group of rat (n=8) was a naive control. The other 2 groups (n=16) of rats received surgical placement of the microdialysis fiber placement. On the day after microdialysis fiber placement, the animals were treated spinally with either Genistein (1 mM) or vehicle (50% DMSO in aCSF) for 1.5 hours (n=8 for each group). Then the left knee joint of all sixteen rats was injected with 0.1 ml of kaolin and carrageenan.
Animals were anesthetized and transcardially perfused with a brief warm saline rinse followed by fixative solution (4% paraformaldehyde in 0.1 M phosphate buffer, pH 7.4). The tissues were soaked overnight in 30% buffered sucrose and cut at 30 microns on a sliding microtome. For light microscopy, the tissues from animals (n=8) were permeabilized with a 50% buffered ethanol treatment. Tissue sections were then stained immunocytochemically for glutamate receptor subunit NR1 and phospho-NR1. Primary antibodies to be used for staining include anti-NMDA NR1 NMDA receptor (0.5–1 milligrams per milliliter (mg/ml)) purchased from Chemlcon Inc. (Pittsburgh, Pa.). Other neurotransmitter and receptor primary antibodies against NMDA NR2C, mGluR1, and mGluR5 were used as stain specificity controls. The primary antibodies were diluted in phosphate buffered saline (PBS, pH 7.6) with 0.1% BSA for overnight incubation on the spinal cord tissues. After washing in PBS, the tissue sections were incubated in the appropriate secondary antibody, either anti-mouse or anti-rabbit IgG (1:100, 30 minutes) and in avidin-biotin complex (ABC, 1:100, Vector Laboratories, Burlingame, Calif.). Sections were reacted with diaminobenzidine (DAB) solution (1.5 mg/ml) as the chromogen and peroxide (0.5 mg/ml) to produce a dense reaction product. To further intensify the reaction product particularly for visualization of nuclear rings, some tissues were reacted with colloidal gold conjugated IgG and reacted with a silver chloride solution to produce an intense black reaction product (Takizawa et al., J. Histochemistry & Cytochemistry, 42, 1615–1623 (1994)).
Immunocytochemical controls included sections processed in the absence of the primary or secondary antibody or ABC reagents. The specificity of the transmitter antibodies was confirmed by appearance of a single band by Western blot. In addition to use of the C-terminus NR1 antibody from ChemIcon, an antibody directed to the N-terminus of the NR1 protein was used as control (1 mg/ml; BD PharMingen, San Diego, Calif.). […]

As to `O=C(O)c1cc(N(Cc2ccccc2O)Cc2ccccc2O)ccc1O` [Lavendustin B], in the assay on rat arthritis model [1], the “development of secondary hyperalgesia” value is recorded as “ineffective in altering the nociceptive outcome of knee joint inflammation”.

With `COC(=O)[C@@]1(O)C[C@H]2O[C@]1(C)n1c3ccccc3c3c4c(c5c6ccccc6n2c5c31)C(=O)NC4` [K252a], in the assay on TNFα, the “NMDA/ACPD-promoted release of TNFα” value is recorded as “completely abolished”.

For `O=C(O)c1cc(N(Cc2ccccc2O)Cc2cc(O)ccc2O)ccc1O` [Lavendustin A], the “most effective dose in pre-treatment animals” value in the assay on rat arthritis model [1] (concentration inside the microdialysis fiber, spinal administration) came out at 0.5 mM. Moreover, the “PWL decrease induced by knee joint inflammation” value in the assay with rat arthritis model [1] (spinal microdialysis pre-treatment 1.5 hours, PWL to radiant heat 4 hours after kaolin/carrageenan) is recorded as “significantly (p<0.05 versus 4 hours vehicle group) attenuated the PWL decreases”. In addition, the “development of secondary hyperalgesia” value with rat arthritis model [1] is on record as “significantly abrogated the development of secondary hyperalgesia”. Further, in the assay on rat arthritis model [2], the joint circumference entry is reported as “expected increases” and the joint temperature entry is recorded as “expected increases”. Besides, the “effect on NMDA currents” value in the assay with NMDA currents is listed as “reversibly depresses NMDA currents”.

As for `C[C@@H]1C[C@@H]([C@H](O)CC2CC(=O)NC(=O)C2)C(=O)[C@@H](C)C1` [Cycloheximide], the “staining for NR1 in spinal cord” value in assay [3] is given as “did not totally reduce the staining to baseline”; in assay [3] (listed as cycloheximide), “reduced the increase in NR1 staining by about half”.
